Several values for one entry are separate records, joined by “and”; a condition that tells them apart may be missing. Equal values may be shown once. Read-outs that look alike come from different tables or passages of the source.
Key:
CatA = biological target: T1, CatA (Homo sapiens, UniProt P10619); assay: CatA-catalyzed hydrolysis of RDV and control (substrate disappearance, LC-MS)
T1 sequence (P10619 29-326 limits assumed): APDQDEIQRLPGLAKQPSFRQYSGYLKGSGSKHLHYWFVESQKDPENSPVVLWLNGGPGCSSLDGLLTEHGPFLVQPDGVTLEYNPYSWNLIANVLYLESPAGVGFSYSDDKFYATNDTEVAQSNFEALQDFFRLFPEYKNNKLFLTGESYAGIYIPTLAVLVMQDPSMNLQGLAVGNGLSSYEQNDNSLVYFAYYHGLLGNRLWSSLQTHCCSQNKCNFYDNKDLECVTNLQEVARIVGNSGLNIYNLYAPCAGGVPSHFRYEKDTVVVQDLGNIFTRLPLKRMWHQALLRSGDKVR
T1 sequence (P10619 327-480 limits assumed): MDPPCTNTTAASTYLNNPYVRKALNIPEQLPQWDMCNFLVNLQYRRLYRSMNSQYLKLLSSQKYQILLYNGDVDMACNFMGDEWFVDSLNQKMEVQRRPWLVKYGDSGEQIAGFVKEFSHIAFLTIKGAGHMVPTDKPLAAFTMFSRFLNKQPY
Procedure: (§1) The catalytic activity of carboxylesterase 1b (CES1b), carboxylesterase 1c (CES1c), CES2, and CatA toward RDV hydrolysis was measured using protein-enriched subcellular fraction (CES isozymes) or recombinant proteins (CatA). The reaction rates were determined by monitoring the disappearance of RDV using a liquid chromatography-mass spectrometry (LC-MS) method.
Following protein precipitation and centrifugation, 150 μl of supernatant was dried down and reconstituted with 250 μl water. […] Three experiments were conducted with two replicates in each experiment, and data are reported as averages from the three experiments.
(§2) In all studies apart from those with CES1 and CatA with enzyme inhibitors, samples (10-μl aliquots) were injected with a Thermo Scientific autosampler. The LC instrumentation consisted of a Thermo Scientific Dionex UltiMate 3000 RS pump, and the LC column was a Waters Acquity UPLC BEH C18 (1.7 μm particle size, 2.1 by 50 mm). Mobile phases A and B were water 99.9% (vol/vol) containing 0.1% (vol/vol) formic acid, and acetonitrile 99.9% (vol/vol) containing 0.1% (vol/vol) formic acid, respectively, pumped at 0.2 ml/minute. Elution was achieved by a series of linear gradients over 2.33 min followed by reequilibration for 2.57 min. The MS instrument was a Thermo Q Exactive Hybrid Quadrupole-Orbitrap operating in positive or negative ionization mode as appropriate. This was calibrated on a weekly basis, and data were processed with GMSU 8.4.66 software by Gubbs Inc. (Alpharetta, GA). Mass tolerance of 5 ppm was used.

CES2 = biological target: T2, CES2 (Homo sapiens, UniProt O00748); assay: CES2-catalyzed hydrolysis of RDV and control (substrate disappearance, LC-MS); type: in vitro ADME; details: for half-life at 1 μM: human, CES2 Supersomes (protein-enriched subcellular fraction)
T2 construct: purchased Corning Incorporated (Corning, NY); host or cells: baculovirus-infected insect cells (microsomal fraction, Supersomes)
T2 sequence (O00748 27-559): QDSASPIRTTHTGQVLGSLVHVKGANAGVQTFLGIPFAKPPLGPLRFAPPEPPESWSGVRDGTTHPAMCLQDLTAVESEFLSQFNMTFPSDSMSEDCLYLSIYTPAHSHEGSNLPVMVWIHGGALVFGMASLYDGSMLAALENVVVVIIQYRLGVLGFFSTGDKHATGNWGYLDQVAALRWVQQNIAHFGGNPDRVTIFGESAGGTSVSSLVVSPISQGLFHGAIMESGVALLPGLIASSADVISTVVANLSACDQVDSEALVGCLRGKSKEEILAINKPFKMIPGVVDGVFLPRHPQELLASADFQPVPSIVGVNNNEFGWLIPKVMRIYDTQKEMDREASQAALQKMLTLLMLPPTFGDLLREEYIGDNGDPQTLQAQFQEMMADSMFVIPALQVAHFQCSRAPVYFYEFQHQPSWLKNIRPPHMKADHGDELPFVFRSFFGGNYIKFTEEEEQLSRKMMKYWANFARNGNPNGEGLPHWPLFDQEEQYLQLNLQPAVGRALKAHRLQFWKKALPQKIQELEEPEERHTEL
Procedure: as §1
(§3) RDV or positive-control substrates (oseltamivir for CES1 or procaine for CES2) were incubated with individual Supersome preparations (final CES concentration, 1.5 mg/ml) in 0.1 M potassium phosphate buffer (pH 7.4) at 37°C. Substrates were added to a final concentration of 1 μM to initiate the reaction. The final incubation volume was 250 μl. Aliquots were removed after incubation for 0, 10, 30, 60, and 120 min. The reactions were stopped by the addition of the quench solution containing the LC-MS internal standard (IS) (labetalol). Following protein precipitation and centrifugation, 150 μl of supernatant was dried down and reconstituted with 250 μl water. All samples were analyzed by an LC-MS, and the analyte/internal standard peak area ratio (PAR) values were used for quantification. Disappearance of RDV or positive-control compounds was monitored over the incubation time period. Three experiments were conducted with two replicates in each experiment, and data are reported as averages from the three experiments.
as §2

CES1b = biological target: T3, CES1b (Homo sapiens, UniProt P23141); assay: CES1b-catalyzed hydrolysis of RDV and control (substrate disappearance, LC-MS); type: in vitro ADME
T3 construct: purchased Corning Incorporated (Corning, NY); host or cells: baculovirus-infected insect cells (microsomal fraction, Supersomes)
T3 sequence (P23141 18-567): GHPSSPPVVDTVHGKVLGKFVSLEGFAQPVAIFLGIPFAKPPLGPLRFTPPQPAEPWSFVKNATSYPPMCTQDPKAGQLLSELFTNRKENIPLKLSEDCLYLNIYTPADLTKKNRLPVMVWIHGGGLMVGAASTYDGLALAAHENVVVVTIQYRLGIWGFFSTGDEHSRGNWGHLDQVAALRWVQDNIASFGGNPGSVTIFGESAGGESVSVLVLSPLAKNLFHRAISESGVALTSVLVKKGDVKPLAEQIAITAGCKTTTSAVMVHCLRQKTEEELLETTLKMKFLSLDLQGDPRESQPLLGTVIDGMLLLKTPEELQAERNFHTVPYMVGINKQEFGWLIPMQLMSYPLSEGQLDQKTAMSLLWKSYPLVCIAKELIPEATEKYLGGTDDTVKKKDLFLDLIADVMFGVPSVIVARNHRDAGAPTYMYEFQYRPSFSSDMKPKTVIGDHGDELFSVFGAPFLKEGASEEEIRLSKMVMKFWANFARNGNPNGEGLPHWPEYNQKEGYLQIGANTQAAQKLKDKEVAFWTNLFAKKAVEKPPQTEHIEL
Procedure: as §1, §3, §2

SARS-CoV-2 = assay: microbe, parasite or virus in culture; type: cell-based

CCC(CC)COC(=O)[C@H](C)N[P@](=O)(OC[C@H]1O[C@@](C#N)(c2ccc3c(N)ncnn23)[C@H](O)[C@@H]1O)Oc1ccccc1 [RDV, Remdesivir]
Activity for amidate ester cleavage, CatA (CatA; 1 μM substrate, 5 nM CatA, pH 6.5, 37°C): 74 ± 32 nmol/min/mg
CatA hydrolysis rate relative to TAF (CatA; fold lower than hydrolysis rate of TAF): 3.4 fold
half-life at 1 μM (CatA; human, recombinant CatA (activated with CatL), pH 6.5): 43 min
Activity for amidate ester cleavage, CES2 (CES2; 1 μM substrate, CES 1.5 mg/ml, pH 7.4, 37°C): 2.8 ± 2.6 × 10^−4 nmol/min/mg
half-life at 1 μM (CES2; pH 7.4, 1 μM substrate, CES 1.5 mg/ml, pH 7.4, 37°C, read-out: t1/2, CES2 (converted)): > 1000 min
half-life at 1 μM (CES2; pH 7.4, as stated in text, read-out: half-life, CES2): > 960 min
half-life at 1 μM (CES1b; human, CES1b Supersomes (protein-enriched subcellular fraction), 1 μM substrate, CES 1.5 mg/ml, pH 7.4, 37°C, read-out: t1/2, CES1b (converted)): 9.7 min
CES1b hydrolysis rate relative to oseltamivir (CES1b; times faster than positive control oseltamivir): 2 times
Fold-RDV EC50, RDV + 0.5 μM telaprevir (SARS-CoV-2; EC50 of combination divided by EC50 of RDV (plus DMSO), 0.5 μM telaprevir): 1.70 ± 0.19
Fold-RDV EC50, RDV + 2.5 μM telaprevir (SARS-CoV-2; EC50 of combination divided by EC50 of RDV (plus DMSO), 2.5 μM telaprevir): 2.27 ± 0.25
Fold-RDV EC50, RDV + 10 μM telaprevir (SARS-CoV-2; EC50 of combination divided by EC50 of RDV (plus DMSO), 10 μM telaprevir): 2.9 and 2.91 ± 0.65
EC50 (SARS-CoV-2; Severe acute respiratory syndrome coronavirus 2, 48 h, compound alone (plus DMSO), A549-hACE2 cells, 48 h): ~99 nM

From PMC8370248, “Key Metabolic Enzymes Involved in Remdesivir Activation in Human Lung Cells” (Antimicrobial Agents and Chemotherapy, 2021)
